Data taken from PubChem BioAssay (NCI).
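Compound exposure: 48 hours, 5 concentrations, 96-well plates. Abbreviation: GI50, concentration required for 50% inhibition of growth. At the TGI there is no net growth.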

Assays:
Assay in all cases: growth of human tumour cells (NCI), 48 h
HCT-15 colon = tested on: HCT-15 colon
HL-60(TB) leukemia = tested on: HL-60(TB) leukemia
LOX IMVI melanoma = tested on: LOX IMVI melanoma
NCI-H460 lung = tested on: NCI-H460 lung
OVCAR-4 ovarian = tested on: OVCAR-4 ovarian
SK-OV-3 ovarian = tested on: SK-OV-3 ovarian
UO-31 renal = tested on: UO-31 renal
NCI/ADR-RES ovarian = tested on: NCI/ADR-RES ovarian
PC-3 prostate = tested on: PC-3 prostate
SNB-19 CNS = tested on: SNB-19 CNS

Compound	TGI (HCT-15 colon) [µM]	TGI (HL-60(TB) leukemia) [µM]	TGI (LOX IMVI melanoma) [µM]	TGI (NCI-H460 lung) [µM]	TGI (OVCAR-4 ovarian) [µM]	TGI (SK-OV-3 ovarian) [µM]	TGI (UO-31 renal) [µM]	TGI (NCI/ADR-RES ovarian) [µM]	TGI (PC-3 prostate) [µM]	TGI (SNB-19 CNS) [µM]	GI50 (HCT-15 colon) [µM]	GI50 (HL-60(TB) leukemia) [µM]	GI50 (LOX IMVI melanoma) [µM]	GI50 (NCI-H460 lung) [µM]	GI50 (NCI/ADR-RES ovarian) [µM]	GI50 (OVCAR-4 ovarian) [µM]	GI50 (PC-3 prostate) [µM]	GI50 (SK-OV-3 ovarian) [µM]	GI50 (SNB-19 CNS) [µM]	GI50 (UO-31 renal) [µM]
CN(C)CC1CCCC/C1=N/O (centres undefined)	> 100	> 100	> 100	> 100	> 100	> 100	> 100	–	–	–	–	–	–	–	–	–	–	–	–	–
CC#Cc1ccc(-c2ccccc2)s1	> 100	> 100	> 100	> 100	> 100	–	> 100	> 100	> 100	> 100	–	–	–	–	–	–	–	–	–	–
O=C1NC(=NCc2ccccc2)S/C1=C\c1ccc2ncccc2c1	> 25	> 25	> 25	> 25	> 25	> 25	> 25	> 25	> 25	> 25	> 25	> 25	> 25	> 25	> 25	> 25	> 25	> 25	> 25	> 25
CN(C)CC1CCC/C1=N/OC(=O)c1ccccc1 (centres undefined)	> 100	–	> 100	> 100	> 100	> 100	> 100	–	–	–	–	–	–	–	–	–	–	–	–	–
Cc1cc2c(cc1C)[n+](=O)c(C(=O)c1ccccc1)c(C(F)F)n2[O-]	> 100	18.9	> 100	> 100	> 100	> 100	> 100	> 100	> 100	> 100	6.76	3.3	10.3	5	36.3	14.2	16.1	54.5	44.2	19.2
CC(=O)OC1(C)N=NC2(CCCCC2)O1 (centres undefined)	> 100	> 100	> 100	> 100	> 100	> 100	–	> 100	> 100	> 100	–	–	–	–	–	–	–	–	–	–
COC1=CC(=O)C(C2(OC(C)C)OC(=O)C(Cl)=C2Cl)=CC1=O (centres undefined)	> 100	1.55	> 100	> 100	–	> 100	> 100	> 100	> 100	> 100	–	–	–	–	–	–	–	–	–	–
COc1ccc2c(c1)[n+]([O-])c(C(N)=O)c(N)[n+]2[O-]	> 100	> 100	–	> 100	> 100	> 100	> 100	–	–	> 100	–	–	–	–	–	–	–	–	–	–
Cc1ccc(S(=O)(=O)N2CCC2c2ccccc2)cc1 (centres undefined)	> 100	40.6	> 100	> 100	> 100	> 100	> 100	–	–	> 100	–	–	–	–	–	–	–	–	–	–
C/C(CN1C(=O)c2ccccc2C1=O)=N\NS(=O)(=O)c1ccc(Cl)cc1	> 100	> 100	–	> 100	> 100	–	> 100	–	–	> 100	–	–	–	–	–	–	–	–	–	–
Cc1nc(-c2nc(C)c(C(=O)NNC(=O)C[n+]3ccccc3)s2)sc1C(=O)NNC(=O)C[n+]1ccccc1	> 100	> 100	> 100	> 100	–	> 100	80.5	–	–	> 100	–	–	–	–	–	–	–	–	–	–
CCOC(=O)C1Sc2ccccc2N=C1C (centres undefined)	> 100	> 100	> 100	> 100	> 100	–	> 100	–	–	> 100	–	–	–	–	–	–	–	–	–	–
O=S1C(=c2ccc(=C3Sc4ccccc4S3)cc2)Sc2ccccc21 (centres undefined)	28.9	> 100	32.2	> 54.8	> 100	37	35.2	–	–	30.7	–	–	–	–	–	–	–	–	–	–
COC(=O)c1cc2oc(/C=C3/SC(=S)N(NC(C)=O)C3=O)cc2n1C	58.5	> 100	27.9	> 100	> 100	–	92.7	51.4	68.4	> 100	14.9	38.3	11.1	8.26	15.3	37.7	25.6	–	31.6	14.5
O=C(NC1C=CCC2C(=O)N(c3ccccc3)C(=O)C12)OCc1ccccc1 (centres undefined)	–	> 100	> 100	> 100	> 100	> 100	> 100	–	–	> 100	–	–	–	–	–	–	–	–	–	–
CCC(C)SC1SCC2C(=O)N(C)C3(CC3C)C(=O)OCC(NC(=O)c3nc4ccccc4cc3O)C(=O)NC(C)C(=O)N(C)C1C(=O)N(C)C1(CC1C)C(=O)OCC(NC(=O)c1nc3ccccc3cc1O)C(=O)NC(C)C(=O)N2C (centres undefined)	0.0538	0.00488	0.000122	0.0262	0.0182	–	0.0127	6.15	0.0049	0.0296	–	–	–	–	–	0.000187	–	–	–	–
CNC(=O)NCCCC(NC(C)=O)C(=O)NCc1ccccc1 (centres undefined)	> 100	–	> 100	> 100	> 100	> 100	> 100	–	–	> 100	–	–	–	–	–	–	–	–	–	–
CN(C)C=Nc1nc(=O)n(C2CCC(CO)O2)cc1F (centres undefined)	> 100	> 100	> 100	> 100	> 100	> 100	> 100	–	–	> 100	–	–	–	–	–	–	–	–	–	–
CC(=O)Nc1cc2ccc(=O)oc2cc1Cl	> 100	> 100	> 100	> 100	> 100	–	> 100	> 100	> 100	> 100	–	–	–	–	–	–	–	–	–	–
COc1ccc(/C=C/COC(C)=O)cc1OC	> 100	–	–	–	> 100	> 100	> 100	–	–	> 100	–	–	–	–	–	–	–	–	–	–
NC(N)=NS(=O)(=O)c1ccc(N=Nc2c(O)c(C(=O)O)cc3ccccc23)cc1	> 100	> 100	–	> 100	> 100	> 100	> 100	> 100	> 100	–	–	–	–	–	–	–	–	–	–	–
O=c1c2cccnc2ncn1CCN1CCCCC1	–	–	> 100	> 100	> 100	> 100	> 100	–	–	> 100	–	–	–	–	–	–	–	–	–	–

Compound	TGI (HCT-15 colon) [µM]	TGI (HL-60(TB) leukemia) [µM]	TGI (LOX IMVI melanoma) [µM]	TGI (NCI-H460 lung) [µM]	TGI (OVCAR-4 ovarian) [µM]	TGI (SK-OV-3 ovarian) [µM]	TGI (UO-31 renal) [µM]	TGI (NCI/ADR-RES ovarian) [µM]	TGI (PC-3 prostate) [µM]	TGI (SNB-19 CNS) [µM]	GI50 (HCT-15 colon) [µM]	GI50 (HL-60(TB) leukemia) [µM]	GI50 (LOX IMVI melanoma) [µM]	GI50 (NCI-H460 lung) [µM]	GI50 (NCI/ADR-RES ovarian) [µM]	GI50 (OVCAR-4 ovarian) [µM]	GI50 (PC-3 prostate) [µM]	GI50 (SK-OV-3 ovarian) [µM]	GI50 (SNB-19 CNS) [µM]	GI50 (UO-31 renal) [µM]
N#CC(C(=O)CCC(=O)Nc1ccc(Cl)c(Cl)c1)c1ccccc1 (centres undefined)	> 100	> 100	–	–	> 100	–	> 100	–	–	> 100	–	–	–	–	–	–	–	–	–	–
C[C@@]1(O)CC[C@]2(C)C3CCCC3[C@H]12 (some centres undefined)	> 100	> 100	> 100	> 100	> 100	> 100	> 100	–	–	> 100	–	–	–	–	–	–	–	–	–	–
CC1(C)[C@@H](NOCCCN)CC[C@]2(C)[C@H]3C(=O)C=C4[C@@H]5C[C@](C)(C(=O)O)CC[C@]5(C)CC[C@@]4(C)[C@]3(C)CC[C@@H]12	> 100	4.16	–	46	34.8	67	20.4	69.4	19	43.7	3.6	1.89	–	8.29	10.6	8.69	3.66	17.8	13.5	7.44
Cn1cc(-c2cc3c(N4CCN(c5ncc([C@@](C)(N)c6ccc(F)cc6)cn5)CC4)ncnn3c2)cn1	> 100	> 100	> 100	> 100	> 100	–	> 100	–	> 100	> 100	3.62	3.8	3.27	4.41	–	2.45	1.99	–	9.63	1.84
CN1C(=O)C(=O)N2c3ccc(Cl)cc3C3(c4ccccc4)N=CC12O3 (centres undefined)	13.3	6.26	–	25.8	8.43	21.7	18.1	–	–	26.8	–	–	–	–	–	–	–	–	–	–
[O-][Cl+3]([O-])([O-])[O-].[O]=[Ru]=[O].c1ccc(-c2ccccn2)nc1.c1ccc(-c2ccccn2)nc1	> 100	> 100	> 100	> 100	> 100	> 100	> 100	–	–	> 100	> 100	> 100	56.8	56.1	–	> 100	–	> 100	65.2	> 100
CCCCCCCCCCCCNC(=S)OC	27.7	27.9	28.7	31.2	38.6	35	17.8	–	–	69.8	–	–	–	–	–	–	–	–	–	–
COc1cc2c(cc1OC)C(Cl)C(c1ccc(F)cc1)=C2Cl (centres undefined)	28.4	24.2	27.7	24.8	–	41.9	33.3	34.5	24.9	37.5	–	–	–	–	–	–	–	–	–	–
O=c1[nH]c(-c2ccccc2)nc2cc(Cl)ccc12	> 100	> 100	–	> 100	> 100	> 100	> 100	–	–	–	–	–	–	–	–	–	–	–	–	–
Cc1[cH-]c(=O)n(-c2ccccc2)n1.[Au+].[Au].c1ccc([PH+](c2ccccc2)c2ccccc2)cc1.c1ccc([PH+](c2ccccc2)c2ccccc2)cc1	29.3	41.1	46.8	37.7	> 100	> 100	> 100	–	–	32.7	11.8	15.2	18	14.4	–	32.2	–	40.4	12.5	11.6
CCOC(=O)C1=C(C)N(NC(=O)Nc2ccccc2)C2(N)N(NC(=O)Nc3ccccc3)C(C)=C(C(=O)OCC)C12C(=O)OCC (centres undefined)	> 100	> 100	> 100	> 100	> 100	> 100	> 100	–	–	> 100	–	–	–	–	–	–	–	–	–	–
O=C(Nc1nc(=S)[nH][nH]1)C(=O)C(C(=O)c1ccc2ccccc2c1)C1OC(=O)c2ccccc21 (centres undefined)	78.5	–	39	> 100	58.2	> 100	30.5	–	–	33.3	–	–	–	–	–	–	–	–	–	–
CC1(C)CC(c2c[nH]c3ccccc23)=CC2=Nc3ccccc3C21O (centres undefined)	> 100	> 100	> 100	> 100	> 100	> 100	> 100	–	–	> 100	–	–	–	–	–	–	–	–	–	–
S=P1(Oc2ccccc2)NNP2(=NP(N3CC3)(N3CC3)=NP(N3CC3)(N3CC3)=N2)NN1 (centres undefined)	> 100	> 100	> 100	> 100	> 100	> 100	> 100	–	–	> 100	–	–	–	–	–	–	–	–	–	–
C#Cc1cccc(Nc2nc3cc([N+](=O)[O-])ccc3nc2Nc2ccc(O)cc2)c1	–	5.63	2.69	–	5.03	5.97	3.12	4.37	3.91	3.19	–	2.42	1.38	–	1.84	1.99	1.65	2.34	1.78	1.53
O=C1C(C(Nc2ccccc2)c2ccccc2)=C([O-])c2ccccc21.O=C1C(C(Nc2ccccc2)c2ccccc2)=C([O-])c2ccccc21.[Cu+2] (centres undefined)	> 100	> 100	> 100	> 100	–	63	> 100	–	–	> 100	52.4	19.6	46.6	40	–	–	–	8.38	> 100	32.2
COc1c(CC(C)=O)ccc2c1C(=O)c1ccc(C=O)c(OC(C)=O)c1C2=O	29.5	22.4	40.3	63.2	30.4	> 100	41.4	–	–	57.4	–	–	–	–	–	–	–	–	–	–
C=C(C)C(=O)O[C@@H]1C[C@@]2(C)O[C@@H]2C[C@H](O)/C(C)=C/[C@H]2OC(=O)C(=C)[C@@H]21	> 100	–	> 100	> 100	78.9	> 100	–	> 100	> 100	> 100	–	–	–	–	–	–	–	–	–	–
Clc1ccc2cccc3c2c1C1OC3c2ccccc21 (centres undefined)	–	> 100	> 100	–	–	> 100	> 100	–	–	> 100	–	–	–	–	–	–	–	–	–	–
CN(C)c1ccc(/C=N/NC(=S)Nc2ccccc2)cc1	> 100	–	> 100	> 100	> 100	> 100	> 100	> 100	> 100	> 100	–	–	–	–	–	–	–	–	–	–
O=C(/C=C/c1c(O)ccc2ccccc12)c1ccc([N+](=O)[O-])cc1	> 66.8	48.6	33.4	> 100	36	> 100	> 61.7	–	–	> 100	–	–	–	–	–	–	–	–	–	–
